Reference: BindingDB's records for PubMed 27021004 (University of Warwick, 2016)

Molecular target: T1, Phospho-N-acetylmuramoyl-pentapeptide-transferase (Bacillus subtilis (strain 168), UniProt Q03521)
T1 sequence (Q03521 whole entry): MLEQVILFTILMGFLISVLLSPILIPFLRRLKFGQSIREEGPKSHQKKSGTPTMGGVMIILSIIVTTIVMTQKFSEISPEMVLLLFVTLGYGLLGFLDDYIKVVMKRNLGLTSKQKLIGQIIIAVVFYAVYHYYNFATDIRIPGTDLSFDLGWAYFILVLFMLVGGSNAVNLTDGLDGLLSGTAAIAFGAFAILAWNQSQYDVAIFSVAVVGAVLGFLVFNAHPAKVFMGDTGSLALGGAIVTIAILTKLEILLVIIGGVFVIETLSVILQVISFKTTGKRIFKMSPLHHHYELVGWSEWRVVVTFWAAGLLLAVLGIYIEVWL
Experiment: Inhibition of Bacillus subtilis MraY

Structure (SMILES): NC[C@H]1O[C@@H](O[C@@H](Cn2cc(CCCCCO)nn2)[C@H]2O[C@@H](n3ccc(=O)[nH]c3=O)[C@H](O)[C@@H]2O)[C@H](O)[C@@H]1O
- IC50: 400 nM
